The target in series [1] is CHO-KCNQ1/minK (Homo sapiens, UniProt P15382+P51787). Particulars: read-out: Estimated IC50 (reference compound); antagonist mode; Qube APC (1 conc.).
Series [2] has as its target T1, HEK-Kir2.1 (Homo sapiens, UniProt P63252).
T1 construct: host or cells: HEK
It counts as cell-based. Particulars: read-out: Estimated IC50 (reference compound).

For series [3], the target named is HEK-Kv4.3/KChIP2 (Homo sapiens, UniProt Q9NS61+Q9UK17). Description: cell-based.
Series [4] has as its target T2, HEK-Nav1.5 (Late, Antagonist) (Homo sapiens, UniProt Q14524).
T2 construct: CYL7004QB2DR (late); host or cells: HEK
It counts as cell-based. As to conditions: antagonist mode; Qube APC (1 conc.); late current, 50nM ATXII; read-out: Estimated IC50 (reference compound).

For series [5], the system named is cancer cell lines. Particulars: ref Saar and colleagues; cited from earlier work.
The test system of series [6] is leukemia and peripheral blood monocyte cell line. On the set-up: method as in PMID 16137634. Particulars: 5 and 10 µM; ref [51]; cited from earlier work.

Data on six compounds can be found in paper PMC10818749, “Toxicity Studies of Cardiac-Targeting Peptide Reveal a Robust Safety Profile” (Pharmaceutics, 2024).

Broadly, the IC50 is the midpoint of a concentration-inhibition curve.

T1 sequence (P63252 whole entry): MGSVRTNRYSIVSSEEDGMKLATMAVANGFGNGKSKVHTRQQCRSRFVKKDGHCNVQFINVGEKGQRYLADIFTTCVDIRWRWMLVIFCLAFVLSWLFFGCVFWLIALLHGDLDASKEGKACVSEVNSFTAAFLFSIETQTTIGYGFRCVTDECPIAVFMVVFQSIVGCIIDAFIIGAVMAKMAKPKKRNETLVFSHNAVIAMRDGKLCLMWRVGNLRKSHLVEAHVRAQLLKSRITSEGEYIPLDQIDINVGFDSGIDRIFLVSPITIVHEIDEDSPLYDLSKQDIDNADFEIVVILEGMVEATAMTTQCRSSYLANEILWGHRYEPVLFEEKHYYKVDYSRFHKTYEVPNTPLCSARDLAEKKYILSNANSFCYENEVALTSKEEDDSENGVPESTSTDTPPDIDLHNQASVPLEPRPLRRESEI
Chain of HEK-Kv4.3/KChIP2 (Q9UK17 whole entry): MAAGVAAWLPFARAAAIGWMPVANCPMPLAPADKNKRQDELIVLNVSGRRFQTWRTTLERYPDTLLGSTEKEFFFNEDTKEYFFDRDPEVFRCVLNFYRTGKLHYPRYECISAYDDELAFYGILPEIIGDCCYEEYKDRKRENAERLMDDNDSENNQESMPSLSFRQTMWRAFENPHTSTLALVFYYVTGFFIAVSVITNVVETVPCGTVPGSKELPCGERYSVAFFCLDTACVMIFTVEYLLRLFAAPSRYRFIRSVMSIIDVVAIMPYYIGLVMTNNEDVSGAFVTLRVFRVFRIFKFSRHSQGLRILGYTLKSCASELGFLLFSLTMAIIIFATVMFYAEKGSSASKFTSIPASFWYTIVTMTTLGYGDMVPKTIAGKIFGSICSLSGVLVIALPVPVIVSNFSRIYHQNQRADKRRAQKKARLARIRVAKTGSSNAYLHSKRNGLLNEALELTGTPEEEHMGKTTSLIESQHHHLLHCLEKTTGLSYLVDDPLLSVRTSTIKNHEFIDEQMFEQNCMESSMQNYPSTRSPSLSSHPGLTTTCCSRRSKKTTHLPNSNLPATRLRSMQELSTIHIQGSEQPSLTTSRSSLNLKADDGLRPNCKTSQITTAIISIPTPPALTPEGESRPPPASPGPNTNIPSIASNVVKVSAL
Chain of HEK-Kv4.3/KChIP2 (Q9NS61 whole entry partner): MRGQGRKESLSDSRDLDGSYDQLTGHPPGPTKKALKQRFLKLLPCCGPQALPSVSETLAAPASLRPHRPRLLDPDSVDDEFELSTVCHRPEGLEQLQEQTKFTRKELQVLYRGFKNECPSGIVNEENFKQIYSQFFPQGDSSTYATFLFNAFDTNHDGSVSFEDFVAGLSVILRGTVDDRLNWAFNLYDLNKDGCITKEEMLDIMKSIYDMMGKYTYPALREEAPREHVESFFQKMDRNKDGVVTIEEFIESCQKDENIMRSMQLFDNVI
T2 sequence (Q14524 whole entry): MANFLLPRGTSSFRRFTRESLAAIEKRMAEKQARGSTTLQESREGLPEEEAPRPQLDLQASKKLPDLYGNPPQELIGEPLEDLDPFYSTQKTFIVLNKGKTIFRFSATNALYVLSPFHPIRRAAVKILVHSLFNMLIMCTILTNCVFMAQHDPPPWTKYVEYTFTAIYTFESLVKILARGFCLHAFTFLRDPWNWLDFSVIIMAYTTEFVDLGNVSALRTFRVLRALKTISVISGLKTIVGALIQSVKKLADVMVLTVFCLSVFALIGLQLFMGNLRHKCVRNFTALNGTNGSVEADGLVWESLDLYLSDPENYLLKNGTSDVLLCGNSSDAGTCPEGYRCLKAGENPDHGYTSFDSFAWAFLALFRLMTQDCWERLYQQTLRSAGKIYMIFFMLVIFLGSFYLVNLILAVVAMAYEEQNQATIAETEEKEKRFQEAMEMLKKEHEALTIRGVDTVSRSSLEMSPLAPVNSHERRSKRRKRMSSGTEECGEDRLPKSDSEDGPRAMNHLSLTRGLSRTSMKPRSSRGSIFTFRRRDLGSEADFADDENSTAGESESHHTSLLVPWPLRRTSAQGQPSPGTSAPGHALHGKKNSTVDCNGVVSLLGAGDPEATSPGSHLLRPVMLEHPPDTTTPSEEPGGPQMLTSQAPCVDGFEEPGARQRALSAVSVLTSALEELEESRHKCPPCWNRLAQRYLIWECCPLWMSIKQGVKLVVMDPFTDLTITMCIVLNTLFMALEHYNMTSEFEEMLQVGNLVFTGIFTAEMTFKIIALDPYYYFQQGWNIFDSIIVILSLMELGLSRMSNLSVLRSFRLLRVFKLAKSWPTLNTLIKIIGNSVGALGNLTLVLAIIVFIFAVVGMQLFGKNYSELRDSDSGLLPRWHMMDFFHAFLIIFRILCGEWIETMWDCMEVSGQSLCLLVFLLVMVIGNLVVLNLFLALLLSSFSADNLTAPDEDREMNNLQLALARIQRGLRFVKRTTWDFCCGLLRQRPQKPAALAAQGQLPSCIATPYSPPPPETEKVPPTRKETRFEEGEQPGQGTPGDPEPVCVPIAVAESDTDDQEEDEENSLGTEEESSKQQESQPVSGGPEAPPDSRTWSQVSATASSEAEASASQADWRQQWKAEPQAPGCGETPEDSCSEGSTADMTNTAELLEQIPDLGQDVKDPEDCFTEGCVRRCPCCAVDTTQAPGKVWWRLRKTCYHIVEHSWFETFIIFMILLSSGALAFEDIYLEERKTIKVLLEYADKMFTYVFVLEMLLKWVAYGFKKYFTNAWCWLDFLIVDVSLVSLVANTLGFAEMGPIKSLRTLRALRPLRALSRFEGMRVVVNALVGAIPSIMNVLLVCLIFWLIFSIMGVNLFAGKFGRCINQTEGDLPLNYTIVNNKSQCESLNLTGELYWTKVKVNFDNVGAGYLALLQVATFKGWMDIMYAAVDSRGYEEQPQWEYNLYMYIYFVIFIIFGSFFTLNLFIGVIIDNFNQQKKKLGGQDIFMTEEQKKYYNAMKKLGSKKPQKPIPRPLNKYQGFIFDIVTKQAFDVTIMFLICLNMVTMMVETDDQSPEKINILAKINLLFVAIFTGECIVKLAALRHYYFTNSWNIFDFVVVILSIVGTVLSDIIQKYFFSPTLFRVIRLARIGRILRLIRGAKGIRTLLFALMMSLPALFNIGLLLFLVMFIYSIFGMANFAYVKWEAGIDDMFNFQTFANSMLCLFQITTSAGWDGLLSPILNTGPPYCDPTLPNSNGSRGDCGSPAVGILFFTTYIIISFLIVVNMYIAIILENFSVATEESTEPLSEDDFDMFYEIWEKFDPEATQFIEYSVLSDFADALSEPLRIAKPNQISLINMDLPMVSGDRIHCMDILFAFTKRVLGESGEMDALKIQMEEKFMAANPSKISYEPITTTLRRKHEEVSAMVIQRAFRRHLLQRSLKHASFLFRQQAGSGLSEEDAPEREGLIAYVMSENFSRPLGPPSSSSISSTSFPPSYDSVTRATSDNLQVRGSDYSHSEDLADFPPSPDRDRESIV

For the compound `CCS(=O)(=O)N(C)[C@H]1c2cc(C#N)ccc2OC(C)(C)[C@@H]1O` (racemic) [Chromanol 293B, reference compound], in series [1], the IC50 was 21.5 µM.

On to `[Ba+2].[Cl-].[Cl-]` [Barium Chloride, reference compound], for which, in series [2], the IC50 was 17.7 µM.

Regarding `O=C(NCC1CCCCN1)c1cc(OCC(F)(F)F)ccc1OCC(F)(F)F` (stereo not shown) [Flecainide], the IC50 in series [3] stood at 12.5 µM.

Turning to `COc1ccccc1OCC(O)CN1CCN(CC(=O)Nc2c(C)cccc2C)CC1` (stereo not shown) [Ranolazine, reference compound], the half-inhibitory concentration (IC50) in series [4] is 72.5 µM.

As for “pVEC: well-characterized, non-cell-specific CPP (TLLIILRRRIRKQAHAHS; UniProt P55284 615-632, looked up, fragment)”, the “membrane leakage of lactate dehydrogenase” value in series [5] was “minimal membrane leakage of lactate dehydrogenase”.

For the compound transportan 10, the cytokine release result in series [6] was “no increase in cytokine levels”. Further, the “membrane leakage of lactate dehydrogenase” value in series [5] is “significant leakage”.
